According to PMC7073229, “Novel Quinoline Compounds Active in Cancer Cells through Coupled DNA Methyltransferase Inhibition and Degradation” (Cancers, 2020):

How the values were obtained:
[1] = system: methylated UCHL1 promoter (pUCHL1) in HCT116 cells; assay: UCHL1 promoter demethylation assay (EGFP induction, FACS); assay type: cell-based, human; details: five days
Protocol: The assay was performed as described in [29]. Briefly, human colon cancer HCT116 (ATCC, VA, USA) cells were grown in Dulbecco’s Modified Eagle Medium (DMEM; Euroclone, Milan, Italy) supplemented with 10% fetal bovine serum (FBS; Euroclone, Milan, Italy), 2 mM L-glutamine (Euroclone), and antibiotics (100 U/mL penicillin, 100 µg/mL streptomycin) (Euroclone). The pUMLIEP vector (composed by MetLuc-IRES-EGFP construct upon the control of the ubiquitin carboxyl-terminal hydrolase L1 (UCHL1)) was linearized and methylated by with ClaI and SssI-methylase enzymes (New England Biolabs, Milan, Italy). After, methylated pUMLIEP was transfected into HCT116 cells following the protocol described in [30]. […] On day 5, cells were observed under by a fluorescent microscope (Cytation 5 Cell Imaging Multi-Mode Reader (BioTeK Milan, Italy) and BD Accuri flow cytometers. Nuclei were counterstained with DAPI (10 µg/mL, Invitrogen, Tournai, Belgium).

[2] = system: peripheral blood B lymphocyte AHH1 cells; assay: Differential toxicity, antiproliferative assay; assay type: cell-based; details: Homo sapiens, AHH-1; 48 h treatment; read-out: IC50 against AHH1 cells
Protocol: U937 histiocytic lymphoma, HL60 acute promyelocytic leukemia, H1299 lung adenocarcinoma, MCF7 breast carcinoma, HT1080 fibrosarcoma, M14 melanoma, HeLa epithelial cervix carcinoma and peripheral blood B lymphocyte AHH1 human cell lines were obtained from the Deutsche Sammlung für Mikroorganismen and Zellkulturen (DSZM, Braunschweig, Germany) and were maintained in RPMI 1640 medium contained 10% fetal bovine serum (FBS), 2 mM L-glutamine, and antibiotics in a humidified atmosphere with 5% CO2 at 37 °C. […]
Then, increasing concentrations of different compounds (ranging from 0.01 to 100 μM) were added, and cell proliferation was evaluated by a MTT assay after 48 h. […] The effect of compounds was evaluated using the CellTiter-Glo luminescent cell viability assay (Promega, Madison, WI, USA) according to the manufacturer’s instructions. […] After treatments, MTT solution was added for 3 h at 0.5 mg/mL, the obtained crystals were dissolved in DMSO (Sigma-Aldrich, Milan, Italy), and the absorbance was read at a wavelength of 570 nm with reader TECAN M-200. […]
IC50 values of compounds against cellular viability were determined by using nonlinear regression fitting curves with GraphPad Prism 8. […]

DNMT1 protein = target: T1, DNMT1 protein (Homo sapiens, UniProt P26358); assay: Western blot of DNMT1 protein level in HCT116 cells; assay type: cell-based; details: HCT116, 1 µM, 24 h
T1 construct: endogenous in cells; host or cells: HCT116
T1 sequence (P26358 whole entry): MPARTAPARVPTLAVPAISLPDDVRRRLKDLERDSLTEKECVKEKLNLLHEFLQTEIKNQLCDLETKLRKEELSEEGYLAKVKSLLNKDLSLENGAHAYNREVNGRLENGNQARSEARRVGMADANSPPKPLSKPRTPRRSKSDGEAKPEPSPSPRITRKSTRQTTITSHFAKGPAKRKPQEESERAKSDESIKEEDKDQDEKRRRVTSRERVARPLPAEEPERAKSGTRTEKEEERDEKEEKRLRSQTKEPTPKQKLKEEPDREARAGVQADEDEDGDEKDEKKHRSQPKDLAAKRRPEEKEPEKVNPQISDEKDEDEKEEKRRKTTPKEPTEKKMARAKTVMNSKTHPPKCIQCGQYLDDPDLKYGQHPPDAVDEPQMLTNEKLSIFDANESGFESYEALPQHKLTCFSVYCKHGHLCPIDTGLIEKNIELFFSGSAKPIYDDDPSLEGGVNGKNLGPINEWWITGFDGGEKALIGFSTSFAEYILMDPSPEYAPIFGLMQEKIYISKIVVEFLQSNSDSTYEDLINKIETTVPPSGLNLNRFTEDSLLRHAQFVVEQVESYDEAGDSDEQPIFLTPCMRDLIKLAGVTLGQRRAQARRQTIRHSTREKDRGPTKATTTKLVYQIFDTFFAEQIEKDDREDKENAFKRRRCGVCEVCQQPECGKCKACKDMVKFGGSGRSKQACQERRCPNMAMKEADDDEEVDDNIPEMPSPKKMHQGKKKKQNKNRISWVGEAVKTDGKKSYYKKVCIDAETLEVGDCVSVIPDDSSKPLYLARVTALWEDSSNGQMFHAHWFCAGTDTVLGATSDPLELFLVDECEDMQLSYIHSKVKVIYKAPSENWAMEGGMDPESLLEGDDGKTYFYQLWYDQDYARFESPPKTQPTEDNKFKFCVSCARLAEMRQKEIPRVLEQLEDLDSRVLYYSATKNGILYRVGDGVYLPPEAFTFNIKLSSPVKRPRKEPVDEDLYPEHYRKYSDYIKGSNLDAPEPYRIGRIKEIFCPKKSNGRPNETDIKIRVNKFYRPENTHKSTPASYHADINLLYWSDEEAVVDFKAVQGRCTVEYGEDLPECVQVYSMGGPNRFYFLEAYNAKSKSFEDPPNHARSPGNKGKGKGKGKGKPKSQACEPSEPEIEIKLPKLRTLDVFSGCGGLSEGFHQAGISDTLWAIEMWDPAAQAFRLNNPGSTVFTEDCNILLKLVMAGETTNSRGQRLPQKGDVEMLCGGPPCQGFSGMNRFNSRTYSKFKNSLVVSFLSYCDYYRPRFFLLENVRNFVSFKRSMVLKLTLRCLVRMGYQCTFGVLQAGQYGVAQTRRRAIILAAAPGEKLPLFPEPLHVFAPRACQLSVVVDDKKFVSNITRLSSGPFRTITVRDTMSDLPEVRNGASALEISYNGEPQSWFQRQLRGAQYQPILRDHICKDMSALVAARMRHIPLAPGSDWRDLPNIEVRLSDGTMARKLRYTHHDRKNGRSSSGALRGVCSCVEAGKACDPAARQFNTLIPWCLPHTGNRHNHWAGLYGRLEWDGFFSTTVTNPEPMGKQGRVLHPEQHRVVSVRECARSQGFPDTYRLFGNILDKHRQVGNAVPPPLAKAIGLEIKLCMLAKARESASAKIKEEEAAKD
Excerpt: Cells were lysed in Laemmli buffer; subsequently the proteins were resolved by sodium dodecyl sulphate-polyacrylamide gel electrophoresis and transferred to a 0.45 µm nitrocellulose membrane (Bio-Rad Laboratories, Hercules, CA, USA). The following primary antibodies were used for immunoblotting: α-DNMT1 (Novus Biologicals, Littleton, CO, USA). α-DNMT3a (SantaCruz Bio-technologies, CA, USA) and α-GAPDH (Millipore Corp., Bedford, MA USA), used as a loading control. The immune complexes were detected with horseradish peroxidase-conjugated species-specific secondary antiserum (Bio-Rad Laboratories, Hercules, CA, USA) then by enhanced chemiluminescence reaction (Bio-Rad Laboratories, Hercules, CA, USA). Densitometric analysis of protein expression was performed by using the Fiji-Image J image processing package.

IKKalpha (h) = IKKalpha (h) (Homo sapiens, UniProt O15111); assay: Kinase inhibitory assay (panel); assay type: biochemical; details: read-out: % inhibition at 10 µM
Sequence of IKKalpha (h) (O15111 whole entry): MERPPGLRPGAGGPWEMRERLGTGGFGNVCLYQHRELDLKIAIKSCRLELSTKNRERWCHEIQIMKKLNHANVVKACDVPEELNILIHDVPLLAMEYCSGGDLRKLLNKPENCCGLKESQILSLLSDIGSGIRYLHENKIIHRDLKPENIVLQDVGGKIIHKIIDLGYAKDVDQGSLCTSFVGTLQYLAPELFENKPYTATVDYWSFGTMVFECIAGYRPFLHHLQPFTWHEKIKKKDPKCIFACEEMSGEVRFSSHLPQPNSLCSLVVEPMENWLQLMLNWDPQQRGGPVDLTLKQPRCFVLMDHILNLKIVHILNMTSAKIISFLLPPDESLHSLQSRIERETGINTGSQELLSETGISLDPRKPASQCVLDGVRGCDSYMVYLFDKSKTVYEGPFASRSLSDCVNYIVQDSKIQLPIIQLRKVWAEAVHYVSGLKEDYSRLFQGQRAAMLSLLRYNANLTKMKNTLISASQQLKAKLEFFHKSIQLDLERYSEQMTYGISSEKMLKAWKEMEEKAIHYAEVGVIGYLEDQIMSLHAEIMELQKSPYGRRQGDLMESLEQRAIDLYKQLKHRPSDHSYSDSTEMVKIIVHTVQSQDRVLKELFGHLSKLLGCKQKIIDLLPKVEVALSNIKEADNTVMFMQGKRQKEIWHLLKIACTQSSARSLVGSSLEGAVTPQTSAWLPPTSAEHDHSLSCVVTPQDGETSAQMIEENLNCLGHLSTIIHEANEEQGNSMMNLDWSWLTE
Protocol: (§1) Experimental procedure of kinase inhibitory assays
(§2) The test compound, reference compound or water (control) were mixed with the enzyme (for the exact amount see table below) in the appropriate buffer. Thereafter, the reaction was initiated by adding the required amount of the appropriate substrate and of ATP, and the mixture is incubated at room temperature (variable reaction time, see table below). For control basal measurements, the enzyme was omitted from the reaction mixture. Following incubation, the reaction was stopped by adding 13 mM
(§3) EDTA. After 5 min, the proper antibody labelled with europium chelate was added. After 60 more min, the fluorescence transfer was measured at λex=337 nm, λem=620 nm and λem=665 nm using a microplate reader (Envision, Perkin Elmer). The enzyme activity was determined by d ividing the signal measured at 665 nm by that measured at 620 nm (ratio). The results are expressed as a percent inhibition of the control enzyme activity. The standard inhibitory reference compound is staurosporine when not differently indicated (see tabl e below), which has been tested in each experiment at several concentrations to obtain an inhibition curve from which its IC 50 value is calculated.
(§4) • Assay volume and format: 10 µL in 384-well plate
(§5) • Compound addition: [100x] solution in solvent then [5x] solution in water • Maximum tolerable DMSO concentration: 1%

IRK (h) (InsR) = IRK (h) (InsR) (Homo sapiens, UniProt P06213); assay: Kinase inhibitory assay (panel); assay type: biochemical; details: read-out: % inhibition at 10 µM
Protocol: as §1, §2, §3, §4, §5

PKCbeta 2 (h) = PKCbeta 2 (h) (Homo sapiens, UniProt P05771); assay: Kinase inhibitory assay (panel); assay type: biochemical; details: read-out: % inhibition at 10 µM
Sequence of PKCbeta 2 (h) (P05771 1-673 isoform P05771-2): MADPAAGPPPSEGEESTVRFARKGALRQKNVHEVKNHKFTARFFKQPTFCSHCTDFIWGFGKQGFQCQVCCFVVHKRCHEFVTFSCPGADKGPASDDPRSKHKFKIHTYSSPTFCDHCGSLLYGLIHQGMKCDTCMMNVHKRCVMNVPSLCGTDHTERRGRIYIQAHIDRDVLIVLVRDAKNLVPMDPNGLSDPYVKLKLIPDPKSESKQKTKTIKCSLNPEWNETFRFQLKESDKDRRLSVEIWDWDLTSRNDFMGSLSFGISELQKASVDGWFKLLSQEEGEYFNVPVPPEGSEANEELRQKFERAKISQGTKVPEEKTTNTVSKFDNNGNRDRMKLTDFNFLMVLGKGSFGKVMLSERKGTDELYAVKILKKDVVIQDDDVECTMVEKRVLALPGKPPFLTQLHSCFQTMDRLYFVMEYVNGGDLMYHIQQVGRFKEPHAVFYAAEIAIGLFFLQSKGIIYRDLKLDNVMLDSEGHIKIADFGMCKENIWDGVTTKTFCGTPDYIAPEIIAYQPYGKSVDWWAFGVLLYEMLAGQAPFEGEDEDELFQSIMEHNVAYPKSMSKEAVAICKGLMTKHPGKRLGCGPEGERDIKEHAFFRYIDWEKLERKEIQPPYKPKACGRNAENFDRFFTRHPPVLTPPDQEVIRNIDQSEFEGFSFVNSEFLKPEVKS
Protocol: as §1, §2, §3, §4, §5

RAF-1 kinase (h) = RAF-1 kinase (h) (Homo sapiens, UniProt P04049); assay: Kinase inhibitory assay (panel); assay type: biochemical; details: read-out: % inhibition at 10 µM
Sequence of RAF-1 kinase (h) (P04049 whole entry): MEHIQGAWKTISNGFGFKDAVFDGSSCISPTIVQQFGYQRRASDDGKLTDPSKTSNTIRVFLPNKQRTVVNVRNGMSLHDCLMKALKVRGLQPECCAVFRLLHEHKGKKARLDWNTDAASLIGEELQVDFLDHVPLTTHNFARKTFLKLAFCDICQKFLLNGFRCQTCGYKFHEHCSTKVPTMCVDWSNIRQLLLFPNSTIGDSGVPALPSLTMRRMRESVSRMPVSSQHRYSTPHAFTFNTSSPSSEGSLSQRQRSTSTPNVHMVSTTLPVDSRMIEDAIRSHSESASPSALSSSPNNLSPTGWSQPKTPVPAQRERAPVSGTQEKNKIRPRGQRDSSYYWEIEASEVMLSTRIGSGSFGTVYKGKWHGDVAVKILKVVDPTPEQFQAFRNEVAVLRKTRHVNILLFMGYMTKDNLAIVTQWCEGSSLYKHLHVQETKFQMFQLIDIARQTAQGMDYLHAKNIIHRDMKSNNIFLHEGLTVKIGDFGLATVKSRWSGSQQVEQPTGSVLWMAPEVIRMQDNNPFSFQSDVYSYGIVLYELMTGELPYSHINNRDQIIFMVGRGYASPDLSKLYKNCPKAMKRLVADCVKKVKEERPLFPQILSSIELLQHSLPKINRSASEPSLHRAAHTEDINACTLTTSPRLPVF
Protocol: as §1, §2, §3, §4, §5

TRKA (h) = TRKA (h) (Homo sapiens, UniProt P04629); assay: Kinase inhibitory assay (panel); assay type: biochemical; details: read-out: % inhibition at 10 µM
Sequence of TRKA (h) (P04629 33-796): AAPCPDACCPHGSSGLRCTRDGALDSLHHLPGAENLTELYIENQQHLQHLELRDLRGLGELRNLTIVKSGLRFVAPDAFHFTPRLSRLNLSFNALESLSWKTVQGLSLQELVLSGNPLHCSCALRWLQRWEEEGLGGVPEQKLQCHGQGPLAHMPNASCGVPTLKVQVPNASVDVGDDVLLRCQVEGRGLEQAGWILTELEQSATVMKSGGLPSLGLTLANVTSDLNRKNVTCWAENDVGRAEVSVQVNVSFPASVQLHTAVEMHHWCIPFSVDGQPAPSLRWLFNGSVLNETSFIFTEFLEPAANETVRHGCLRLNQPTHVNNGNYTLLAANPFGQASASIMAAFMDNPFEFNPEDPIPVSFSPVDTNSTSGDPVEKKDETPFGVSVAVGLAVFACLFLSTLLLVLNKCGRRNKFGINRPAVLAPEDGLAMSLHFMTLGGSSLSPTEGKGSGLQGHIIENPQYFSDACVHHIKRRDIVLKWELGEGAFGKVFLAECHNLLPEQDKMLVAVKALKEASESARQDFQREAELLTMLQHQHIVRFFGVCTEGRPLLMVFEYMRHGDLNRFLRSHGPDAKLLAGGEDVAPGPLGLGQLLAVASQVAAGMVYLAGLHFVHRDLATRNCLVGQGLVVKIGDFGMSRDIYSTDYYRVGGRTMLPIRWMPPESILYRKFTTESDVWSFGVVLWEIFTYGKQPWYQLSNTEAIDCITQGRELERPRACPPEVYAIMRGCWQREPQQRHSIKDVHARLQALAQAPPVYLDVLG
Protocol: as §1, §2, §3, §4, §5

SMILES | pUCHL1 demethylation, EGFP-positive cells (FACS R1) ([1]; HCT116, 0.1 µM) [%] | IC50 [2] [µM] | pUCHL1 demethylation, EGFP-positive cells (FACS R1) ([1]; HCT116, 0.5 µM) [%] | DNMT1 protein level (western blot) (DNMT1 protein) | DNMT1 protein level (western blot) with bortezomib (DNMT1 protein; co-treated with bortezomib 10 nM) | inhibition at 10 µM (IKKalpha (h)) [%] | inhibition at 10 µM (IRK (h) (InsR)) [%] | inhibition at 10 µM (PKCbeta 2 (h)) [%] | inhibition at 10 µM (RAF-1 kinase (h)) [%] | inhibition at 10 µM (TRKA (h)) [%]
O=C(Nc1cccc(Nc2ccnc3ccccc23)c1)c1ccc(Nc2ccnc3ccccc23)cc1 [Compound 2c] | 42.3 |  |  |  |  |  |  |  |  | 
O=C(Nc1cccc(NC(=O)c2ccc(Nc3ccnc4ccccc34)cc2)c1)OCc1ccccc1 [Compound 4c] |  | 9.6 | 58.7 | decrease | rescued |  |  |  |  | 
O=C(Nc1cccc(Nc2ccnc3ccccc23)c1)c1cccc(Nc2ccnc3ccccc23)c1 [Compound 2b] |  | 3.3 |  | decrease |  | 70 | 86 | 79 | 79 | 98
O=C(Nc1ccc(Nc2ccnc3ccccc23)cc1)c1cccc(Nc2ccnc3ccccc23)c1 [Compound 2a] |  |  |  |  |  | 70 | 86 | 79 | 79 | 98
